Data: PMC6766977 (International Journal of Cancer, 2019)

Assays:
LNCaP = assay: Cell viability; type: cell-based, human; conditions: read-out: IC50 inhibition of cell viability LNCaP; 1 nM R1881, 6 days; mean ± SD
[1] = tested on: LAPC‐4 prostate cancer xenograft; assay: LAPC-4 xenograft in vivo efficacy; design: species or system mice; conditions: for ΔT/ΔC tumor volume: Day 56
[2] = tested on: KuCaP‐1 prostate cancer xenograft; assay: KuCaP-1 patient-derived xenograft in vivo efficacy; design: species or system mice; conditions: for ΔT/ΔC tumor volume: Day 68; for Maximal body weight loss: vehicle group 10%

Compound: C[C@@H](Cn1ccc(-c2ccc(C#N)c(Cl)c2)n1)NC(=O)c1cc([C@@H](C)O)[nH]n1 [(S,R)‐darolutamide]
- IC50 (LNCaP): 4.71 µM

Compound: C[C@H](O)c1cc(C(=O)N[C@@H](C)Cn2ccc(-c3ccc(C#N)c(Cl)c3)n2)n[nH]1 [(S,S)‐darolutamide]
- IC50 (LNCaP): 5.23 µM

Compound: CC(O)(CS(=O)(=O)c1ccc(F)cc1)C(=O)Nc1ccc(C#N)c(C(F)(F)F)c1 (centres unmarked) [Bicalutamide, reference compound]
- IC50 (LNCaP): 3.47 µM

Compound: CC(O)c1cc(C(=O)N[C@@H](C)Cn2ccc(-c3ccc(C#N)c(Cl)c3)n2)[nH]n1 (some centres unmarked) [Darolutamide]
- ΔT/ΔC tumor volume ([1]; LAPC‐4, 100 mg/kg bi‐daily oral): 25%
- ΔT/ΔC tumor volume ([1]; LAPC‐4, 200 mg/kg once daily oral): 23%
- Reduction of FKBP5 expression in tumors ([1]; LAPC‐4 tumors, highest treatment doses, 4 hr after final dosing): 50%
- IC50 (LNCaP): 5.26 µM
- ΔT/ΔC tumor volume ([2]; KuCaP‐1, 40 mg/kg bi‐daily oral): 45%
- Maximal body weight loss ([2]; KuCaP‐1, 40 mg/kg bi‐daily): 8%
- ΔT/ΔC tumor volume ([2]; KuCaP‐1, 100 mg/kg bi‐daily oral): 26%
- Maximal body weight loss ([2]; KuCaP‐1, 100 mg/kg bi‐daily): 6%

Compound: CNC(=O)c1ccc(N2C(=S)N(c3ccc(C#N)c(C(F)(F)F)c3)C(=O)C2(C)C)cc1F [Enzalutamide, reference compound]
- ΔT/ΔC tumor volume ([2]; KuCaP‐1, 30 mg/kg daily): 70%
- ΔT/ΔC tumor volume ([2]; KuCaP‐1, 100 mg/kg daily): 99%

Compound: CC(=O)c1cc(C(=O)N[C@@H](C)Cn2ccc(-c3ccc(C#N)c(Cl)c3)n2)[nH]n1 [Keto‐darolutamide]
- IC50 (LNCaP): 3.21 µM
